IC50 data for 67 molecules are collected here from the Kinase Knowledgebase extract (Sharma et al. 2016).

The target of the experiment is ROCK2 (human) (UniProt O75116). As to the kind of experiment: Inhibition of ROCK2 Kinase Activity.
Chain of ROCK2 (human) (O75116 whole entry, looked up): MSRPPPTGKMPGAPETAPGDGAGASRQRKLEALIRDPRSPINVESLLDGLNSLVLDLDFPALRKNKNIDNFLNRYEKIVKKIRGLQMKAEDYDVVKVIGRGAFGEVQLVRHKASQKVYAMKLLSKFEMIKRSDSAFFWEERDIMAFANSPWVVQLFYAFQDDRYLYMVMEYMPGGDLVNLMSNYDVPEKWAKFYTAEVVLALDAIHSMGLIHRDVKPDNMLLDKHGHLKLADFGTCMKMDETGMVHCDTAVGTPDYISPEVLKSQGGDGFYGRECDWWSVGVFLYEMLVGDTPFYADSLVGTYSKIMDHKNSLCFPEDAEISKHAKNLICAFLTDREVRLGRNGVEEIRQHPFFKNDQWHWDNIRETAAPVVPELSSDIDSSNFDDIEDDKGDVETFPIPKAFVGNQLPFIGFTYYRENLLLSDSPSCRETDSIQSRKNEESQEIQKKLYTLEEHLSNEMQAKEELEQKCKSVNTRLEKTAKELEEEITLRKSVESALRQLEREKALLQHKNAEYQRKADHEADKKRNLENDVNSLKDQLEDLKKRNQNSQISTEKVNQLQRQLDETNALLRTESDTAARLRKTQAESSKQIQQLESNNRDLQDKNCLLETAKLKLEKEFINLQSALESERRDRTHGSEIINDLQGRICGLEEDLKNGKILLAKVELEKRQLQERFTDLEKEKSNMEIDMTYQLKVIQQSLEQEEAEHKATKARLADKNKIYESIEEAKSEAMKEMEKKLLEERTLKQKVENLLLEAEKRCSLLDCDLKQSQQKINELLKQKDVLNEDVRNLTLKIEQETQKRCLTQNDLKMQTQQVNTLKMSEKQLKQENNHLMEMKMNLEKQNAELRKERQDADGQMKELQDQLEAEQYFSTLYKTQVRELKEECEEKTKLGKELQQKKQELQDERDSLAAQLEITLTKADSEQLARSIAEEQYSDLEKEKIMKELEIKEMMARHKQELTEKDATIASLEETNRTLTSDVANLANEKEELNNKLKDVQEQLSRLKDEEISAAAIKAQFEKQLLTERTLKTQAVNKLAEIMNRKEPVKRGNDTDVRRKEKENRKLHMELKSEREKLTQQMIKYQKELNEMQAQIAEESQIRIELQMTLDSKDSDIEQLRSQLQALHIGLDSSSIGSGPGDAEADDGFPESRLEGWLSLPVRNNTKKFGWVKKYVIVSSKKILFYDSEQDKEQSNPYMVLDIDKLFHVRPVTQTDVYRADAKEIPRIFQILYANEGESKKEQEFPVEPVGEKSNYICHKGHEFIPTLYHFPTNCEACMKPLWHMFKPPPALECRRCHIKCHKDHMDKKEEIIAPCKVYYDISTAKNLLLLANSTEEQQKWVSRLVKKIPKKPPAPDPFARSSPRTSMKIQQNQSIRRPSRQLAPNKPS
With `O=C(NCc1nc(-c2ccncc2)n[nH]1)c1ccnc(Cl)c1`, the 50% inhibitory concentration (IC50) (as a rule, the concentration at which inhibition is half-maximal) was more than 5 µM.
Regarding `COc1ccc(C(=O)NCc2nc(-c3ccncc3)n[nH]2)c(OC)c1OC`, the IC50 is more than 5 µM.
For the molecule `CCCCCc1ccc(C(=O)NCc2nc(-c3c[nH]c4ncccc34)n[nH]2)cc1`, the half-inhibitory concentration (IC50) is more than 5 µM.
In the case of `O=C(NCc1nc(-c2ccncc2)n[nH]1)c1ccc(OCc2ccccc2)cc1`, the IC50 is more than 5 µM.
Consider `O=C(CCc1cccc(Br)c1)NCc1nc(-c2c[nH]c3ncccc23)n[nH]1`, for which the IC50 was more than 5 µM.
For `O=C(NCc1nc(-c2c[nH]c3ncccc23)n[nH]1)c1ccc2ncccc2c1`, the IC50 was more than 5 µM.
For the molecule `O=C(NCc1nc(-c2c[nH]c3ncccc23)n[nH]1)c1ccccc1[N+](=O)[O-]`, the IC50 is more than 5 µM.
The molecule `Clc1ccc(SCc2n[nH]c(-c3ccncc3)n2)cc1` had an IC50 not above 5 µM.
As for `CS(=O)(=O)Nc1ccccc1C(=O)NCc1nc(-c2ccncc2)n[nH]1`, the IC50 was more than 5 µM.
Turning to `N#Cc1cccc(C(=O)NCc2nc(-c3c[nH]c4ncccc34)n[nH]2)c1`, the IC50 is more than 5 µM.
The molecule `Cc1ccccc1C(=O)NCc1nc(-c2c[nH]c3ncccc23)n[nH]1` came in with an IC50 of more than 5 µM.
Under `CCC(=O)C(=O)NCc1nc(-c2c[nH]c3ncccc23)n[nH]1` stands more than 5 µM; under `Cc1csc(C(=O)NCc2nc(-c3ccncc3)n[nH]2)c1`, not above 5 µM; under `CC(C)C(C(=O)NCc1nc(-c2ccncc2)n[nH]1)N(C)C(=O)OC(C)(C)C` (configuration not stated), more than 5 µM.
On to `O=C(NCc1nc(-c2c[nH]c3ncccc23)n[nH]1)c1c(F)cccc1Cl`, for which the IC50 is more than 5 µM.
With `O=C(NCc1nc(-c2ccncc2)n[nH]1)c1cccc(F)c1`, the IC50 is more than 5 µM.
With `CC(C)(C)OC(=O)NCC(=O)NCc1nc(-c2c[nH]c3ncccc23)n[nH]1`, the IC50 is more than 5 µM.
`Cc1ccc(C(=O)NCc2nc(-c3ccncc3)n[nH]2)cc1` had a concentration for half-maximal inhibition (IC50) of more than 5 µM.
The molecule `O=C(NCc1nc(-c2ccncc2)n[nH]1)c1cccc(Br)n1` came in with an IC50 of more than 5 µM.
`CCCCOc1ccc(C(=O)NCc2nc(-c3c[nH]c4ncccc34)n[nH]2)cc1` came in with an IC50 of more than 5 µM.
To `O=C(NCc1nc(-c2ccncc2)n[nH]1)c1cccc(Oc2ccccc2)c1` belongs more than 5 µM; to `COc1ccc(C(=O)NCc2nc(-c3ccncc3)no2)cc1`, more than 5 µM.
`COc1ccc2cc(C(C)C(=O)NCc3nc(-c4c[nH]c5ncccc45)n[nH]3)ccc2c1` (configuration not stated) registered an IC50 of more than 5 µM.
Molecule `Cc1ccc([N+](=O)[O-])c(C(=O)NCc2nc(-c3ccncc3)n[nH]2)c1` registered an IC50 of more than 5 µM.
With `Cc1cccc(C(=O)NCc2nc(-c3ccncc3)n[nH]2)c1`, the IC50 is more than 5 µM.
On to `O=C(NCc1nc(-c2ccncc2)n[nH]1)c1cc2ccccc2cc1O`, for which the IC50 was not above 5 µM.
In turn, `O=C(C=Cc1ccccc1Cl)NCc1nc(-c2ccncc2)n[nH]1` gave an IC50 of more than 5 µM.
`O=C(NCc1nc(-c2ccncc2)n[nH]1)c1ccccc1C(=O)c1ccc(O)cc1` yielded an IC50 of more than 5 µM.
For `O=C(CCc1cccc(C(F)(F)F)c1)NCc1nc(-c2ccncc2)n[nH]1`, the IC50 is not above 5 µM.
Take `CC(C)(C)OC(=O)NC(Cc1ccc(O)cc1)C(=O)NCc1nc(-c2ccncc2)n[nH]1` (configuration not stated): the half-maximal inhibitory concentration (IC50) is more than 5 µM.
`O=C(NCc1nc(-c2ccncc2)n[nH]1)c1ccc([N+](=O)[O-])cc1Cl` came in with an IC50 of more than 5 µM.
As for `O=C(NCc1nc(-c2ccncc2)n[nH]1)c1ccncc1`, the IC50 was more than 5 µM.
`COc1cc(OC)cc(C(=O)NCc2nc(-c3c[nH]c4ncccc34)n[nH]2)c1` had an IC50 of more than 5 µM.
In the case of `O=C(NCc1nc(-c2c[nH]c3ncccc23)n[nH]1)c1cccc([N+](=O)[O-])c1`, the IC50 was more than 5 µM.
`COc1ccc(NC(=O)NCc2nc(-c3ccncc3)n[nH]2)c(OC)c1`: the IC50 was more than 5 µM.
On to `CC(C(=O)NCc1nc(-c2c[nH]c3ncccc23)n[nH]1)c1cccc(C(=O)OCc2ccccc2)c1` (configuration not stated), for which the IC50 is more than 5 µM.
To `Cc1cc(C(=O)NCc2nc(-c3ccncc3)n[nH]2)ccc1Br` belongs more than 5 µM; to `O=C(NCc1nc(-c2ccncc2)n[nH]1)c1c(O)ccc2ccccc12`, more than 5 µM.
`Cc1ccccc1OCC(=O)NCc1nc(-c2c[nH]c3ncccc23)n[nH]1` returned a half-inhibitory concentration (IC50) of more than 5 µM.
The molecule `O=C(NCc1cc(-c2ccncc2)n[nH]1)c1ccc(O)cc1O` returned an IC50 not above 5 µM.
On to `O=C(CCc1ccccc1O)NCc1nc(-c2ccncc2)n[nH]1`, for which the concentration for half-maximal inhibition (IC50) is more than 5 µM.
For `Cc1ccc(C(=O)NCc2nc(-c3c[nH]c4ncccc34)n[nH]2)cc1F`, the IC50 is more than 5 µM.
Molecule `CCc1cccc(C(=O)NCc2nc(-c3ccncc3)n[nH]2)c1O` had an IC50 not above 5 µM.
For `O=C(NCc1nc(-c2c[nH]c3ncccc23)n[nH]1)c1c(F)cccc1F`, the IC50 was more than 5 µM.
Take `O=C(NCc1nc(-c2c[nH]c3ncccc23)n[nH]1)c1ccc(F)cc1Cl`: the IC50 was more than 5 µM.
For `CC(C)(C)OC(=O)NC(Cc1ccccn1)C(=O)NCc1nc(-c2ccncc2)n[nH]1` (configuration not stated), the IC50 was more than 5 µM.
Under `Cc1ccc(C(=O)CCC(=O)NCc2nc(-c3c[nH]c4ncccc34)n[nH]2)cc1` stands more than 5 µM; under `O=C(CCc1nc2ccccc2[nH]1)NCc1nc(-c2c[nH]c3ncccc23)n[nH]1`, more than 5 µM.
As for `Cc1c(C(=O)NCc2nc(-c3c[nH]c4ncccc34)n[nH]2)cccc1[N+](=O)[O-]`, the IC50 was more than 5 µM.
Turning to `O=C(NCc1nc(-c2ccncc2)n[nH]1)c1ccc([N+](=O)[O-])c(O)c1`, the IC50 was not above 5 µM.
`Cc1ccc([N+](=O)[O-])c(C(=O)NCc2nc(-c3c[nH]c4ncccc34)n[nH]2)c1` yielded an IC50 of more than 5 µM.
The molecule `COc1ccc(Br)c(C(=O)NCc2nc(-c3c[nH]c4ncccc34)n[nH]2)c1` had an IC50 of more than 5 µM.
Under `COc1cccc(C(=O)NCc2nc(-c3ccncc3)n[nH]2)c1OC` stands more than 5 µM; under `CC(C)(C)OC(=O)NCC[C@H](NC(=O)c1ccc(O)cc1O)c1nc(-c2ccncc2)n[nH]1`, not above 5 µM.
Under `O=C(Cc1ccccc1O)NCc1nc(-c2ccncc2)n[nH]1` stands more than 5 µM; under `COc1cc(C=CC(=O)NCc2nc(-c3c[nH]c4ncccc34)n[nH]2)ccc1O`, more than 5 µM; under `N#CCC(=O)NCc1nc(-c2c[nH]c3ncccc23)n[nH]1`, more than 5 µM.
Under `COc1cccc(OC)c1C(=O)NCc1nc(-c2c[nH]c3ncccc23)n[nH]1` stands more than 5 µM; under `O=C(NCc1nc(-c2ccncc2)n[nH]1)c1ccc(Cl)cc1[N+](=O)[O-]`, more than 5 µM; under `Cc1cccc(C(=O)NCc2nc(-c3c[nH]c4ncccc34)n[nH]2)c1C`, more than 5 µM.
Take `CC(=O)Oc1ccc(C(=O)NCc2nc(-c3ccncc3)n[nH]2)cc1`: the IC50 is not above 5 µM.
Under `O=C(NCc1c[nH]c(-c2ccncc2)n1)c1ccc(O)cc1O` stands not above 5 µM; under `CC(C)c1cc(C(=O)NCc2nc(-c3c[nH]c4ncccc34)n[nH]2)c(O)c(C(C)C)c1`, more than 5 µM.
For `O=C(NCc1nc(-c2ccncc2)n[nH]1)c1ccc(I)cc1`, the IC50 is more than 5 µM.
Molecule `Cc1cccc(C(=O)NCc2nc(-c3ccncc3)n[nH]2)c1O` displayed an IC50 not above 5 µM.
Molecule `O=C(NCc1nc(-c2ccncc2)n[nH]1)c1c(F)cccc1Cl` registered an IC50 of more than 5 µM.
To `CC(C)(C)C(=O)Oc1ccc(C(=O)NCc2nc(-c3ccncc3)n[nH]2)c(OC(=O)C(C)(C)C)c1` belongs more than 5 µM.
